# Biological target: T1, soluble guanylate cyclase (sGC) (Rattus norvegicus, UniProt P20595)
# T1 construct: made in house; host or cells: baculovirus/Sf9 insect cells
# T1 sequence (P20595 1-619): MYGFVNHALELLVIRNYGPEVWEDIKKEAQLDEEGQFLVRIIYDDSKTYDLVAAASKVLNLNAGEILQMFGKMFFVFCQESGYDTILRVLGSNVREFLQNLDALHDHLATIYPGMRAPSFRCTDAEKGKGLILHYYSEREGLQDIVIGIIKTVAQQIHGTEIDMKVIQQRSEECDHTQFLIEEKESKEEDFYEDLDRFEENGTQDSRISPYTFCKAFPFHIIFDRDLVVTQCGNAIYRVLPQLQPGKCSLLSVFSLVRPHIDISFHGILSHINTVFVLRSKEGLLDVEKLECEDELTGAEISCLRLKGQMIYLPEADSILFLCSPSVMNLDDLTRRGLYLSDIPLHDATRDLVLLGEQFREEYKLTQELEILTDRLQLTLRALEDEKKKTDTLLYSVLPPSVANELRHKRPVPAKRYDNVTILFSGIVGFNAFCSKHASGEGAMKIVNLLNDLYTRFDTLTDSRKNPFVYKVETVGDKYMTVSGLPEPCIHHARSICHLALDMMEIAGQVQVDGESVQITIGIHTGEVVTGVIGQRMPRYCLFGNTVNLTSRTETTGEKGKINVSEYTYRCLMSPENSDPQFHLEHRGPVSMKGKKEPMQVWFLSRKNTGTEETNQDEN
# T1 sequence (P19686 1-690 partner): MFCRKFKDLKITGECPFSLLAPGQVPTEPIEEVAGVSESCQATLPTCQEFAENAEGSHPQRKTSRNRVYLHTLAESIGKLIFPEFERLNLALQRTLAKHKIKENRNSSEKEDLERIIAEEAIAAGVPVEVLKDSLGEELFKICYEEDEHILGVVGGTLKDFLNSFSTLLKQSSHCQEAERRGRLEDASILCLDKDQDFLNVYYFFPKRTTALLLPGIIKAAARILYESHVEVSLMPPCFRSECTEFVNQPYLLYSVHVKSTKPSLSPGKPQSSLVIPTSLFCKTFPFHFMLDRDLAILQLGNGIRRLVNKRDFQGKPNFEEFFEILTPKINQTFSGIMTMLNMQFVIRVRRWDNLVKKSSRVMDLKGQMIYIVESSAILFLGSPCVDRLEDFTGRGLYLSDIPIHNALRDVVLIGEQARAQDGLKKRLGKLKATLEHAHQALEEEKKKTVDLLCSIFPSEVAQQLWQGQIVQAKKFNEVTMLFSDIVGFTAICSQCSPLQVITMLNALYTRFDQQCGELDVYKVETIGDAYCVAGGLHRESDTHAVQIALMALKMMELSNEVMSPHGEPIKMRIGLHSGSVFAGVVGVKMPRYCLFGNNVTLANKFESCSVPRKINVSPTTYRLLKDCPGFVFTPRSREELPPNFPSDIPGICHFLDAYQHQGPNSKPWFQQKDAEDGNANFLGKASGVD
# Experiment: Stimulation of sGC enzyme activity (PPi/luciferase detection)
# Type: biochemical
# Conditions: sGC enzyme in vitro
# Protocol: Soluble guanylate cyclase (sGC) converts on stimulation GTP into cGMP and pyrophosphate (PPi). PPi is detected with the aid of the assay described below. The signal produced in the assay increases as the reaction progresses and serves as a measure of the sGC enzyme activity under the given stimulation.
# To carry out the assay, 29 μl of enzyme solution [0-10 nM soluble guanylate cyclase (prepared according to Honicka et al., J. Mol. Med. 77, 14-23 (1999)) in 50 mM TEA, 2 mM MgCl2, 0.1% BSA (fraction V), 0.005% Brij®, pH 7.5] are initially introduced into a microplate, and 1 μl of the substance to be tested (as a serially diluted solution in DMSO) is added. The mixture is incubated at room temperature for 10 min. Then 20 μl of detection mix [1.2 nM Firefly Luciferase (Photinus pyralis luciferase, Promega), 29 μM dehydroluciferin (prepared according to Bitler & McElroy, Arch. Biochem. Biophys. 72, 358 (1957)), 122 μM luciferin (Promega), 153 μM ATP (Sigma) and 0.4 mM DTT (Sigma) in 50 mM TEA, 2 mM MgCl2, 0.1% BSA (fraction V), 0.005% Brij®, pH 7.5] are added. The enzyme reaction is started by adding 20 μl of substrate solution [1.25 mM guanosine 5′-triphosphate (Sigma) in 50 mM TEA, 2 mM MgCl2, 0.1% BSA (fraction V), 0.005% Brij®, pH 7.5] and measured continuously in a luminometer. The extent of the stimulation by the substance to be tested can be determined relative to the signal of the unstimulated reaction.
# The activation of heme-free guanylate cyclase is examined by addition of 25 μM of 1H-1,2,4-oxadiazolo[4,3-a]quinoxalin-1-one (ODQ) to the enzyme solution and subsequent incubation for 30 minutes and compared to the stimulation of the native enzyme.
compound,measurement,value
"O=C(NCCCCC1(C(=O)O)CC1)C(c1ccc(CN2N=C(c3ccccc3)OCC2=O)cc1)C1CCCC1 (single isomer, unassigned; (+)) [Example 1, (+)-1-(4-{[2-cyclopentyl-2-{4-[(5-oxo-2-phenyl-5,6-dihydro-4H-1,3,4-oxadiazin-4-yl)methyl]phenyl}-acetyl]amino}butyl)cyclopropanecarboxylic acid]","MEC (minimum effective concentration), activating action at the sGC enzyme",51 nM
